The target of experiment [1] is T1, HIOMT2 (OMT2) O-methyltransferase (Humulus lupulus, UniProt B0ZB56).
T1 construct: The open reading frame of each enzyme was cloned into the baculovirus expression vector pFastBacHT (Invitrogen); 6xHis with TEV site, from the pFastBacHT vector (own knowledge); made in house; host or cells: Spodoptera frugiperda (Sf9) insect cells, baculovirus; crude cell lysate
T1 sequence (B0ZB56 1-360): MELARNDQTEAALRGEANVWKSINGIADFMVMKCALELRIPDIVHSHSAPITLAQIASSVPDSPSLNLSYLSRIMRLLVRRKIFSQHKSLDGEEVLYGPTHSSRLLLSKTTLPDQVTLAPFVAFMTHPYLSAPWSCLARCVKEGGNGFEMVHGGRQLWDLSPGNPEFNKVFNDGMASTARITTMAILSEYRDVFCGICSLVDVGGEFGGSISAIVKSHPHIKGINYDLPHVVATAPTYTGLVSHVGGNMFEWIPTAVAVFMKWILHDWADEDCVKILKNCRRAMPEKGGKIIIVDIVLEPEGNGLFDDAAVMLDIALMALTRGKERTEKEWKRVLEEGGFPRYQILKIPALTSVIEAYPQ
Description: 14C-SAM methylation enzyme assay with recombinant HIOMT2 (OMT2) insect cell lysate. The format is biochemical. The note with it: recombinant enzyme from Sf9 insect cell lysate, 14C-SAM methyl donor, ethyl acetate extract, scintillation counting. The source says: (§1) The open reading frame of each enzyme was cloned into the baculovirus expression vector pFastBacHT (Invitrogen) and the resulting bacmid generated using the Bac-to-Bac system (Invitrogen). The bacmid was used to transfect Spodoptera frugiperda (Sf9) insect cells. After amplification of the baculovirus through several passages, insect cell monolayers were infected, cultivated for 2-4 days and then centrifuged to separate cells from culture media. Cell pellets were lysed and aliquots used directly in enzyme assay containing ^14C—S-adenosyl methionine (^14C-SAM) as a methyl donor and various phenolic and phenylpropanoid natural products as substrates. Methylation activity was measured by the extraction of the enzyme reaction with ethyl acetate and its analysis by scintillation counting. In this assay, ^14C-methylation of one of the proffered substrates is indicated by the presence of radioactivity in the ethyl acetate extract.

In experiment [2] the target is T2, HIOMT1 (OMT1) O-methyltransferase (Humulus lupulus, UniProt B0ZB55, L311X).
T2 construct: The open reading frame of each enzyme was cloned into the baculovirus expression vector pFastBacHT (Invitrogen); 6xHis with TEV site, from the pFastBacHT vector (own knowledge); made in house; host or cells: Spodoptera frugiperda (Sf9) insect cells, baculovirus; crude cell lysate
Description: 14C-SAM methylation enzyme assay with recombinant HIOMT1 (OMT1) insect cell lysate. The class given is biochemical. The note with it: for methylation of substrate by OMT1: recombinant enzyme from Sf9 insect cell lysate, 14C-SAM methyl donor, ethyl acetate extract, scintillation counting. On the procedure: FIG. 3. Enzymatic activity of HIOMT1 showing that this enzyme methylates desmethylxanthohumol to produce xanthohumol. […] Recombinant HIOMT1 was expressed in insect cells and crude cell lysate used for enzymatic assay. (A) Radio-HPLC analysis of reaction products from empty vector control lysate incubated with ^14C-SAM and desmethylxanthohumol. (B) Radio-HPLC analysis of reaction products from HIOMT1 lysate incubated with ^14C-SAM. (C) Radio-HPLC analysis of reaction products HIOMT1 lysate incubated with ^14C-SAM and desmethylxanthohumol showing that xanthohumol is formed (D) Reversed-phase HPLC analysis of authentic xanthohumol.
as §1

Molecules are shown by their SMILES. Entries after “also recorded” stand apart in the source; their conditions may differ.

Consider `COc1ccccc1O` [guaiacol], for which, in experiment [1], the “methylation of substrate by OMT2” value is “methylate”. Turning to `Oc1cccc(O)c1` [resorcinol], the “methylation of substrate by OMT2” value in experiment [1] is reported as “methylate”. Still for that read-out and setting: in the case of `Cc1cc(O)cc(O)c1` [orcinol] it was “methylate”; in that of `O=C(/C=C/c1ccc(O)cc1)c1ccccc1O` [2′,4-dihydroxychalcone], “methylate”; in that of `C=CCc1ccc(O)c(OC)c1` [eugenol], “methylate”. For `CC(C)=CCc1c(O)cc(O)c(C(=O)/C=C/c2ccc(O)cc2)c1O` [desmethylxanthohumol], the “methylation of substrate by OMT2” value in experiment [1] was “capable of using desmethylxanthohumol as a substrate; also recorded: methylate”. Besides, the “methylation by HIOMT1, reaction product by radio-HPLC (FIG. 3)” value in experiment [2] (crude insect cell lysate, 14C-SAM, radio-HPLC analysis, product xanthohumol) is “methylates desmethylxanthohumol to form xanthohumol”. Besides, the “methylation of substrate by OMT1” value in experiment [2] is “capable of using desmethylxanthohumol as a substrate; also recorded: methylate”.

In the case of `Oc1ccccc1O` [catechol], the “methylation of substrate by OMT2” value in experiment [1] was “methylate”. On the same count and under the same terms, to `COc1cc(O)c(CC=C(C)C)c(O)c1C(=O)C=Cc1ccc(O)cc1` [xanthohumol, 1-[2,4-dihydroxy-6-methoxy-3-(3-methylbut-2-enyl)phenyl]-3-(4-hydroxyphenyl)-prop-2-en-1-one] belongs “methylate”. Regarding `COc1cc(O)c(C(=O)/C=C/c2ccc(O)cc2)c(O)c1CC=C(C)C` [xanthogalenol], the “methylation of substrate by OMT1” value in experiment [2] was “methylate”.

For `Oc1ccc(C=Cc2cc(O)cc(O)c2)cc1` [resveratrol], in experiment [1], the “methylation of substrate by OMT2” value is recorded as “methylate”. Same read-out and setting: in the case of `O=C(/C=C/c1ccc(O)cc1)c1ccc(O)cc1O` [isoliquiritigenin] it was “methylate”; in that of `O=C(/C=C/c1ccc(O)cc1)c1c(O)cc(O)cc1O` [chalconaringenin], “methylate”. The same measure, in the same setting: to `O=c1c(-c2ccc(O)cc2)coc2cc(O)cc(O)c12` [genistein] belongs “methylate”; to `O=C(/C=C/c1ccc(O)c(O)c1)c1ccc(O)cc1O` [butein], “methylate”.

Source of the values: US7723088B2, “DNA sequences involved in prenylflavonoid biosynthesis in hops and their use in modifying prenylflavonoid production in plants” (priority 2005, dated 2010).
